The values below are quoted from earlier work in publication PMC3389233 (Bioorganic & medicinal chemistry, 2012).

Like-named read-outs stand apart in the source and are kept apart here.

In the data set the target is HPPK.

The term Kd denotes the equilibrium constant for the complex coming apart. With `Nc1nc2c(c(=O)[nH]1)N=C(CO)CN2` [HP, 6-hydroxymethyl-7,8-dihydropterin], the Kd entry (rapid addition of HP after MgATP binding) was “sub-µM range”.
Take `Nc1ncnc2c1ncn2[C@@H]1O[C@H](COP(=O)(O)OP(=O)(O)OP(=O)(O)O)[C@@H](O)[C@H]1O` [MgATP]: where the note is “MgATP binding to the enzyme first”, the Kd was 2.6 to 4.5 µM.
